This note sets out measurements from ChEMBL document CHEMBL1134028, “1,2,5-Thiadiazole derivatives are potent and selective ligands at human 5-HT1A receptors” (Bioorg Med Chem Lett, 2001).

Assay [1] has as its target T1, 5-hydroxytryptamine receptor 1A (Homo sapiens) (UniProt P08908).
T1 sequence (whole entry): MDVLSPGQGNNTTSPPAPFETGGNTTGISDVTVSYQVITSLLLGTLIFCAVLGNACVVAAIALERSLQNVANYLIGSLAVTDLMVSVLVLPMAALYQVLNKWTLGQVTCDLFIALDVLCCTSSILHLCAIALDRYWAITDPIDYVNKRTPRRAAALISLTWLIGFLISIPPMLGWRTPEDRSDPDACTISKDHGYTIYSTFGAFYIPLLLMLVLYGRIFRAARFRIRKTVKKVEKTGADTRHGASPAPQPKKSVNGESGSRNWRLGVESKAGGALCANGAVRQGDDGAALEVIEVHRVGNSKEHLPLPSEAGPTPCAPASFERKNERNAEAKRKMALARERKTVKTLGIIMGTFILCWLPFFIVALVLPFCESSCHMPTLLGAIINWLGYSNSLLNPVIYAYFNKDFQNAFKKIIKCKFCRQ
Description: Ability to displace [3H]-8-OH-DPAT from CHO cells stably transfected with human 5-hydroxytryptamine 1A receptor at a concentration of 1 uM. The format is cell-based.

For assay [2], the target named is D(2) dopamine receptor (Rattus norvegicus, UniProt P61169). Nature of the assay: Percent inhibition towards dopamine D2 receptor.
In assay [3] the target is T2, D(4) dopamine receptor (Homo sapiens, UniProt P21917).
T2 sequence (P21917 whole entry): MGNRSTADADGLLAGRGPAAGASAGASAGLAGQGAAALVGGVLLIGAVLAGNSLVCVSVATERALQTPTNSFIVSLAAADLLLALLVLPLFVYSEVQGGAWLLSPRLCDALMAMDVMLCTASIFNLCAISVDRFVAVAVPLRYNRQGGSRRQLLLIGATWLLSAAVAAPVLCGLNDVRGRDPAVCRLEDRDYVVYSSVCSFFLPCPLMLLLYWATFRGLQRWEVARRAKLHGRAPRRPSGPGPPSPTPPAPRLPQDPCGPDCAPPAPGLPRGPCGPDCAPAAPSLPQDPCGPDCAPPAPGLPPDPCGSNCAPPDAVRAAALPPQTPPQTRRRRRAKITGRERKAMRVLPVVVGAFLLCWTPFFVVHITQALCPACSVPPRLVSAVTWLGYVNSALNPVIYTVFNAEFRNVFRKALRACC
Nature of the assay: Percent inhibition towards dopamine D4 receptor.

For assay [4], the target named is T3, 5-hydroxytryptamine receptor 1A (Homo sapiens, UniProt P08908).
T3 sequence (P08908 whole entry): T1 sequence (whole entry)
Nature of the assay: Ability to displace [3H]8-OH-DPAT from CHO cells stably transfected with human 5-hydroxytryptamine 1A receptor. The format is cell-based.

Assay [5] addresses D(3) dopamine receptor (Homo sapiens, UniProt P35462). Description: Percent inhibition towards dopamine D3 receptor.
In assay [6] the test system is CHO. Nature of the assay: Inhibitory activity determined by the compound ability to reverse the forskolin-stimulated turnover of cAMP in CHO cells. The format is functional, cell-based. The conditions noted are these: Cricetulus griseus.
Assay [7] has as its system CHO. Description: Intrinsic activity determined by the compound ability to reverse the forskolin-stimulated turnover of cAMP in CHO cells. It counts as functional. The conditions noted are these: Cricetulus griseus.
Assay [8] concerns the target Adrenergic receptor alpha-1 (Rattus norvegicus) (UniProt P15823+P23944+P43140). Description: Compound was tested for percent inhibition at Alpha-1 adrenergic receptor in rat at 100 nM concentration.
The target of assay [9] is D(2) dopamine receptor (Rattus norvegicus) (UniProt P61169). Nature of the assay: Percent inhibition towards dopamine D2 receptor at 100 nM concentration.
Assay [10] deals with CHO. Description: Effective concentration for intrinsic activity determined by the compound ability to reverse the forskolin-stimulated turnover of cAMP in CHO cells. The conditions noted are these: Cricetulus griseus.

Sequence of D(3) dopamine receptor (P35462 whole entry): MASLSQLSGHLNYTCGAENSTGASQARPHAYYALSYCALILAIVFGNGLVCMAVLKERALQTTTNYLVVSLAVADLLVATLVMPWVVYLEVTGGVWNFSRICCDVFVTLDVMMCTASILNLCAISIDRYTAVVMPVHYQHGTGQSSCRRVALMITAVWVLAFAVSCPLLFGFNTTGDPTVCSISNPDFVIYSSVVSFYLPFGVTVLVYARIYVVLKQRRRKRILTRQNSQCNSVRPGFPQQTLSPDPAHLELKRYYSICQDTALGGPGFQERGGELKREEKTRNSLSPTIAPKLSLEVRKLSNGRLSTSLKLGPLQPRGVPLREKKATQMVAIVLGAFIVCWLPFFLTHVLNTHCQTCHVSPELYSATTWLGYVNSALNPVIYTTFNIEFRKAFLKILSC
Sequence of D(2) dopamine receptor (Rattus norvegicus) (P61169 whole entry): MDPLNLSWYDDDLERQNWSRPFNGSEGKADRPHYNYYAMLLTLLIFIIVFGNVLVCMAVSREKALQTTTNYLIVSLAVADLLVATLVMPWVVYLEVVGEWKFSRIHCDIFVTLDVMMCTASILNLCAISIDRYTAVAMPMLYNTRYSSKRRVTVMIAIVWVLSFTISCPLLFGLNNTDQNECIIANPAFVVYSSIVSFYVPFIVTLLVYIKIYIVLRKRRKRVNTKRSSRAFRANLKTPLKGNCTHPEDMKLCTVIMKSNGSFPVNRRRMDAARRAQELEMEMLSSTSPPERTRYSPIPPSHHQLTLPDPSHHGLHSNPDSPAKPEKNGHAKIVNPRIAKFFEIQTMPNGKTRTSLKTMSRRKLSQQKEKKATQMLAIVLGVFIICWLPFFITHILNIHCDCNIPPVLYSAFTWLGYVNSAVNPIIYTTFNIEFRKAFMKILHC
Sequence of D(2) dopamine receptor (P61169 whole entry): as above

For the molecule `O=C(N[C@@H](Cc1ccccc1)CN1CCN(c2nsnc2Cl)CC1)c1ccccn1`, the inhibition in assay [1] amounted to 47%.
On to `COc1nsnc1N1CCN(C[C@@H](Cc2cccnc2)NC(=O)C2(C)CCCCC2)CC1`, for which the IC50 came to 3520 nM in assay [2], 1100 nM in [3], 489 nM in [5] and 113 nM in [6]. The molecule further returned a Ki in assay [4] of 3 nM. The maximum response (Emax) in [7] worked out at 0%.
Turning to `CN(C(=O)C1CCCCC1)[C@H](Cc1ccccc1)CN1CCN(c2nsnc2Cl)CC1`, in [8], the inhibition was 0%. 49.3 nM corresponded to half-maximal inhibition in assay [6] (IC50).
Turning to `COc1nsnc1N1CCN(C[C@@H](Cc2ccccc2)N(C)C(=O)N2CCOCC2)CC1`, in [1], the inhibition is 46%.
For the molecule `COc1nsnc1N1CCN(C[C@@H](Cc2ccccc2)N(C)C(=O)C2CCCCC2)CC1`, the affinity in [4] corresponds to a Ki of 1.5 nM. The values for the inhibition in assay [8] and in [9] were 0% and 11%, respectively. This molecule returned an IC50 in [6] of 72.7 nM.
As for `O=C(N[C@@H](Cc1ccccc1)CN1CCN(c2nsnc2Cl)CC1)C1CCCCC1`, the Ki in [4] is 0.8 nM. In addition, in [8], the inhibition came out at 17%. Further, in assay [10], the EC50 amounted to 4.6 nM. Besides, in assay [7], the Emax worked out at 93%.
Regarding `COc1nsnc1N1CCN(C[C@@H](Cc2ccccc2)N(C)C(=O)c2ccccc2)CC1`, the Ki in assay [4] worked out at 9.9 nM. Also, the inhibition in assay [8] is 15%. The molecule also yielded an IC50 in assay [6] of 6.4 nM. This molecule also displayed an Emax in assay [7] of 0%.

One may read the inhibition as the percentage by which the read-out fell short of the control. Low readings indicate a response near the control, high ones a response far below the control. In general, IC50 refers to the concentration that gives 50% inhibition. A higher IC50 goes with weaker potency in that assay. Usually Ki stands for the dissociation constant of the complex between target and ligand, obtained from inhibition or displacement. Low readings indicate tighter binding, high ones weaker binding. Usually Emax stands for the size of the effect at its maximum, as opposed to the concentration needed. For orientation: EC50 means the midpoint of the concentration-response curve. The low end stands for greater potency, the high end for weaker potency.
